Earlier results on 1 substance are cited in patent US20200222451A1, “Composition” (Optibiotix Limited, priority 2017, published 2020).

The conditions of the series: compared to placebo.

For chromium picolinate, under “P<0.0001”, the fat cravings result was “reduces” and the food intake result is recorded as “reduces”. In addition, the hunger levels entry (P<0.05) is given as “reduces”. Further, the body weight result (P<0.08) is recorded as “decrease”.
